{
  "source": "paper PMC10924921",
  "about": "“Mi-2β promotes immune evasion in melanoma by activating EZH2 methylation” (Nature Communications, 2024)",
  "experiment_in_all_cases": "biochemical",
  "set-up_in_all_cases": "KINOMEscan active-site competition binding panel (468 kinase assays), per cent of control at 1000 nM",
  "conditions_in_all_cases": "KINOMEscan per cent of control (binding competition); read-out: Percent Control",
  "key": {"[1]": {"target": "T1, ABL1(F317I)-phosphorylated (Homo sapiens, UniProt P00519, F317I)", "T1 construct": "phosphorylated", "T1 sequence (P00519 whole entry F317I)": "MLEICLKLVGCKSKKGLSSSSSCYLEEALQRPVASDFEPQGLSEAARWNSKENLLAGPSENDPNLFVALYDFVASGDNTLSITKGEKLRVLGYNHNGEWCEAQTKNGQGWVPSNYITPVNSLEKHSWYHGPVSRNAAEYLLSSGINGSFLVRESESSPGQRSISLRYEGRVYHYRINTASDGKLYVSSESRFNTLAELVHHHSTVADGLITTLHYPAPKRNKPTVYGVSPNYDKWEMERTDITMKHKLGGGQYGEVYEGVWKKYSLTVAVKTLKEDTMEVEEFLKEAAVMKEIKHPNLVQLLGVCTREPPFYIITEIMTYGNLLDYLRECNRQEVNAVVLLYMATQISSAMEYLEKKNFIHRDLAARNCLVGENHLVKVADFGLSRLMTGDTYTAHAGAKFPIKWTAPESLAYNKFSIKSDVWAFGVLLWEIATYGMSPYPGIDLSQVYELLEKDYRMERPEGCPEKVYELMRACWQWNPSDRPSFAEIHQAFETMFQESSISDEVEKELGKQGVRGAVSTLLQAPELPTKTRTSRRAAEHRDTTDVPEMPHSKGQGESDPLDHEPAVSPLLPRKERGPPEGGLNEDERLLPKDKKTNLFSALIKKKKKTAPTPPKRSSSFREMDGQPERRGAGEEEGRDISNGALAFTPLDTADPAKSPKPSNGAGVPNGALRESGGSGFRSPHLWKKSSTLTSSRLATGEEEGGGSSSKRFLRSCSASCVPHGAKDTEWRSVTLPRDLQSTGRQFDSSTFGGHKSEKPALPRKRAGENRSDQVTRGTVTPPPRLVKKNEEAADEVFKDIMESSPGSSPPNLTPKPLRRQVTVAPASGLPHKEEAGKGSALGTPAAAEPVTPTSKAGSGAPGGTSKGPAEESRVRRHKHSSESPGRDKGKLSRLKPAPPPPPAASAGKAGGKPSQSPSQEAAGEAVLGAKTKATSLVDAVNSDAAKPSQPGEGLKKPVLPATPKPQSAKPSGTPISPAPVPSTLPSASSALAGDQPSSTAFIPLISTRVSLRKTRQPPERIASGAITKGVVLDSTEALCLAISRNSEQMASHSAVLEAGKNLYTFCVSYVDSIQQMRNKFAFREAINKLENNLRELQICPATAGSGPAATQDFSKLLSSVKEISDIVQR", "description": "(§1) Figure S7 / Percent Control"}, "[2]": {"target": "ACVR1 (Homo sapiens, UniProt Q04771)", "description": "as §1"}, "[3]": {"target": "ACVR2B (Homo sapiens, UniProt Q13705)", "description": "as §1"}, "[4]": {"target": "AURKB (Homo sapiens, UniProt Q96GD4)", "sequence (Q96GD4 whole entry)": "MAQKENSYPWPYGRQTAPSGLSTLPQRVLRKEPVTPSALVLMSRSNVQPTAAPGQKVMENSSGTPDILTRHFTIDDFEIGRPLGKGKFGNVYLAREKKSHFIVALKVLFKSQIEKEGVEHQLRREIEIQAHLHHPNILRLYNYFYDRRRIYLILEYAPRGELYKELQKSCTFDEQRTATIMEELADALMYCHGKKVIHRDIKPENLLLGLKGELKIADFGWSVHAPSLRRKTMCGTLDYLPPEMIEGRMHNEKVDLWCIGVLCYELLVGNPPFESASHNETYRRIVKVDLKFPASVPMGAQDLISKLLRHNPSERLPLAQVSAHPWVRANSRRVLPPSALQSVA", "description": "as §1"}, "[5]": {"target": "BMPR1A (Homo sapiens, UniProt P36894)", "description": "as §1"}, "[6]": {"target": "BMPR2 (Homo sapiens, UniProt Q13873)", "description": "as §1"}, "[7]": {"target": "BRSK1 (Homo sapiens, UniProt Q8TDC3)", "description": "as §1"}, "[8]": {"target": "CAMK2B (Homo sapiens, UniProt Q13554)", "description": "as §1"}, "[9]": {"target": "CLK3 (Homo sapiens, UniProt P49761)", "description": "as §1"}, "[10]": {"target": "CSF1R (Homo sapiens, UniProt P07333)", "description": "as §1"}, "[11]": {"target": "CSNK2A1 (Homo sapiens, UniProt P68400)", "description": "as §1"}, "[12]": {"target": "T2, CTK (Homo sapiens, UniProt P42679)", "T2 construct": "gene MATK", "description": "as §1"}, "[13]": {"target": "DAPK1 (Homo sapiens, UniProt P53355)", "sequence (P53355 whole entry)": "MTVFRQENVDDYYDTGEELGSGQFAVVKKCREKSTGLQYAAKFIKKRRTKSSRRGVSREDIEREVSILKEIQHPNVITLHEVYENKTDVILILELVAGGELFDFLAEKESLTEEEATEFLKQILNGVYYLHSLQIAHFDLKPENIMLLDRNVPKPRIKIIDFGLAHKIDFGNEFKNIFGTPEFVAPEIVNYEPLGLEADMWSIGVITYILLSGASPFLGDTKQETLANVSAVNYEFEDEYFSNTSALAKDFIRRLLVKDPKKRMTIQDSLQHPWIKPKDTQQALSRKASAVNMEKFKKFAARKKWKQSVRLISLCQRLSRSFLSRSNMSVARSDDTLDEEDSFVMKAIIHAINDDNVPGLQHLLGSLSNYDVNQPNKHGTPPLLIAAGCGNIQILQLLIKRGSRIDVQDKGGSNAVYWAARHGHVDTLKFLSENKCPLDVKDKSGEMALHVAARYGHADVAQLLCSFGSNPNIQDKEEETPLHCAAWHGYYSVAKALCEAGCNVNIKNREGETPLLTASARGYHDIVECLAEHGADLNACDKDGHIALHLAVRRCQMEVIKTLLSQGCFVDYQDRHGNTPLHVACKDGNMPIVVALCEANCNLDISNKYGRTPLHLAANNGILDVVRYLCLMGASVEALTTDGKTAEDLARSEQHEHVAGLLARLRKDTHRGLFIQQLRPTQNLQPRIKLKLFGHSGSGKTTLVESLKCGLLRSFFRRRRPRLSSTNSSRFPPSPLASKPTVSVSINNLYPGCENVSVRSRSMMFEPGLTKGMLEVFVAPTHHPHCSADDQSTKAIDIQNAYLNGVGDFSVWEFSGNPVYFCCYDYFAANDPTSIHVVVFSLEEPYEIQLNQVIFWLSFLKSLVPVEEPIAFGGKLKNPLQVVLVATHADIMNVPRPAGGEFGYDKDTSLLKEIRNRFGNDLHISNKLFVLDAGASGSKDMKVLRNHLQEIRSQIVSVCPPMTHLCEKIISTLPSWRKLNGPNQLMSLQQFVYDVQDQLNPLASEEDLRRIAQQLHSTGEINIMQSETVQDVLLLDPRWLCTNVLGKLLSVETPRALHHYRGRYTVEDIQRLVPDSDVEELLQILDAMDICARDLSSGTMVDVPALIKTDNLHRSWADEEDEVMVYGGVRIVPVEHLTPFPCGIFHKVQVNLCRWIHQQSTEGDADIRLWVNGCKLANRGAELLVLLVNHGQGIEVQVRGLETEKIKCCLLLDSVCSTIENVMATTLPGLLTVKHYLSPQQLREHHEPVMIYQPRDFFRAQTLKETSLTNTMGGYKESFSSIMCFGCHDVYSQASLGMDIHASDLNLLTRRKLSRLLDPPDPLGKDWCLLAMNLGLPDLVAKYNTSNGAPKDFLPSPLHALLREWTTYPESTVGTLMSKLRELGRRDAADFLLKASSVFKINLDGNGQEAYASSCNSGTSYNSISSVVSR", "description": "as §1"}, "[14]": {"target": "MARK1 (Homo sapiens, UniProt Q9P0L2)", "description": "as §1"}, "[15]": {"target": "MELK (Homo sapiens, UniProt Q14680)", "description": "as §1"}, "[16]": {"target": "PIK3CA (Homo sapiens, UniProt P42336)", "sequence (P42336 whole entry)": "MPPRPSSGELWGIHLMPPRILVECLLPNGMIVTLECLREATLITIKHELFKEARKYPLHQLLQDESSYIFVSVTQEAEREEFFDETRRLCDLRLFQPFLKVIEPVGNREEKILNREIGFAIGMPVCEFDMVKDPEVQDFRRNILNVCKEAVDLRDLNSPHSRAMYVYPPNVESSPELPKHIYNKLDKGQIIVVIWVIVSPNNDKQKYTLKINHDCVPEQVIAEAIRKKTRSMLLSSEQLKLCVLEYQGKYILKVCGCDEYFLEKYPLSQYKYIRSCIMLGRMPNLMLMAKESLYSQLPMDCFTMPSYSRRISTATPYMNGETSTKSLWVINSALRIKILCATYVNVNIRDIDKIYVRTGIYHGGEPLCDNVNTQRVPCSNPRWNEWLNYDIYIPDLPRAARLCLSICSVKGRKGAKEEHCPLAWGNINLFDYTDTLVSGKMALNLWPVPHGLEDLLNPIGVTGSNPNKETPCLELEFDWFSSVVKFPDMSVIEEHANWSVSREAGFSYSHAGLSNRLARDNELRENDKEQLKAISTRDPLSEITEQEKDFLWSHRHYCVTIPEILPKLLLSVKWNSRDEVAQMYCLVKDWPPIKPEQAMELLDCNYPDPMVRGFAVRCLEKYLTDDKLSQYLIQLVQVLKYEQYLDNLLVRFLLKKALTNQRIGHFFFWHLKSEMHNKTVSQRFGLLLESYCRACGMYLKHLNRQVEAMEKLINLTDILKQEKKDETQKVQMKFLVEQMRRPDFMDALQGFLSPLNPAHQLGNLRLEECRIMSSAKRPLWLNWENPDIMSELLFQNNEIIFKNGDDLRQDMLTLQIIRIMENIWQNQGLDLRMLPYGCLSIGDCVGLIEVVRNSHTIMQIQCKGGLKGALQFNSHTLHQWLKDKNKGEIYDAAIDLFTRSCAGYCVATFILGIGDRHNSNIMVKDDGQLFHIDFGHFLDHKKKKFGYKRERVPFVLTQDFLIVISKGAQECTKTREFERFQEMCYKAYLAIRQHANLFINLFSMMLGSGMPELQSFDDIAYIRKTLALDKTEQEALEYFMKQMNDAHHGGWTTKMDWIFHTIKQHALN", "description": "as §1"}, "[17]": {"target": "PIK3CA(H1047L) (Homo sapiens, UniProt P42336, H1047L)", "sequence (P42336 whole entry H1047L)": "as the sequence (P42336 whole entry) above, with H1047L counted along it", "description": "as §1"}, "[18]": {"target": "T3, PIP5K2B (Homo sapiens, UniProt P78356)", "T3 construct": "gene PIP4K2B", "description": "as §1"}, "[19]": {"target": "RET(M918T) (Homo sapiens, UniProt P07949, M918T)", "description": "as §1"}, "[20]": {"target": "SRC (Homo sapiens, UniProt P12931)", "sequence (P12931 whole entry)": "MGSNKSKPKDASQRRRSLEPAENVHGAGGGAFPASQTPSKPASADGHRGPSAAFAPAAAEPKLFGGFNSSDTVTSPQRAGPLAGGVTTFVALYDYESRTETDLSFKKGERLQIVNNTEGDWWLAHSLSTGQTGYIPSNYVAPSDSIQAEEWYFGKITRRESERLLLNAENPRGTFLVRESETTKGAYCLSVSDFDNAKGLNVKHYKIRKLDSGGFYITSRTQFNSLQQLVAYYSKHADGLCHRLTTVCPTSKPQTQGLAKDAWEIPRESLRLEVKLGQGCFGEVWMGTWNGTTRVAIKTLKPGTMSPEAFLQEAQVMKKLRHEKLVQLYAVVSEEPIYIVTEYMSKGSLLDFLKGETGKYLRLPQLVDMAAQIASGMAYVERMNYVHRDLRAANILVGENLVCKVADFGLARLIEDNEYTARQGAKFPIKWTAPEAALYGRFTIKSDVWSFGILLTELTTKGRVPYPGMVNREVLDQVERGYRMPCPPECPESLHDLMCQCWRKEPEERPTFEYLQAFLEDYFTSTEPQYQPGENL", "description": "as §1"}, "[21]": {"target": "STK33 (Homo sapiens, UniProt Q9BYT3)", "sequence (Q9BYT3 whole entry)": "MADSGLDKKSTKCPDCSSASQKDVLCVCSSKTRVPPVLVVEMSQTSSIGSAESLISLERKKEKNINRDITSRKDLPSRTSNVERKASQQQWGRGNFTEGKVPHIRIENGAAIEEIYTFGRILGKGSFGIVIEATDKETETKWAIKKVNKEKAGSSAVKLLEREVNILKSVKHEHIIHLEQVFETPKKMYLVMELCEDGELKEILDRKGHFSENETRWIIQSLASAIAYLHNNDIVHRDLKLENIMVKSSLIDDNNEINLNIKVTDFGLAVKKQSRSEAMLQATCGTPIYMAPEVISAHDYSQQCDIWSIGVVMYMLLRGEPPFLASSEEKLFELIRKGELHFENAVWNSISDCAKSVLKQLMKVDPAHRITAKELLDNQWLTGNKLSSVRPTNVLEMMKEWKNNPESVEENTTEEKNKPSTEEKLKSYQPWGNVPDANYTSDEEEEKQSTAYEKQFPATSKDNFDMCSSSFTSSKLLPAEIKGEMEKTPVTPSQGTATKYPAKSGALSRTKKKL", "description": "as §1"}, "[22]": {"target": "STK39 (Homo sapiens, UniProt Q9UEW8)", "description": "as §1"}, "[23]": {"target": "TLK1 (Homo sapiens, UniProt Q9UKI8)", "description": "as §1"}, "[24]": {"target": "VRK2 (Homo sapiens, UniProt Q86Y07)", "description": "as §1"}, "[25]": {"target": "T4, ZAK (Homo sapiens, UniProt Q9NYL2)", "T4 construct": "gene MAP3K20", "description": "as §1"}},
  "data": [
    {"compound": "Cn1c(=O)[nH]c2ccc(-c3cccc(C(=O)NC4CCn5ccnc5C4)c3)cc21", "note": "(stereo not shown) [Z36-MP5]", "values": [
      {"measurement": "remaining binding at 1 µM", "setting": "[1]", "value": 90, "unit": "%"},
      {"measurement": "remaining binding at 1 µM", "setting": "[2]", "value": 47, "unit": "%"},
      {"measurement": "remaining binding at 1 µM", "setting": "[3]", "value": 91, "unit": "%"},
      {"measurement": "remaining binding at 1 µM", "setting": "[4]", "value": 84, "unit": "%"},
      {"measurement": "remaining binding at 1 µM", "setting": "[5]", "value": 100, "unit": "%"},
      {"measurement": "remaining binding at 1 µM", "setting": "[6]", "value": 62, "unit": "%"},
      {"measurement": "remaining binding at 1 µM", "setting": "[7]", "value": 92, "unit": "%"},
      {"measurement": "remaining binding at 1 µM", "setting": "[8]", "value": 91, "unit": "%"},
      {"measurement": "remaining binding at 1 µM", "setting": "[9]", "value": 91, "unit": "%"},
      {"measurement": "remaining binding at 1 µM", "setting": "[10]", "value": 91, "unit": "%"},
      {"measurement": "remaining binding at 1 µM", "setting": "[11]", "value": 61, "unit": "%"},
      {"measurement": "remaining binding at 1 µM", "setting": "[12]", "value": 61, "unit": "%"},
      {"measurement": "remaining binding at 1 µM", "setting": "[13]", "value": 99, "unit": "%"},
      {"measurement": "remaining binding at 1 µM", "setting": "[14]", "value": 92, "unit": "%"},
      {"measurement": "remaining binding at 1 µM", "setting": "[15]", "value": 85, "unit": "%"},
      {"measurement": "remaining binding at 1 µM", "setting": "[16]", "value": 97, "unit": "%"},
      {"measurement": "remaining binding at 1 µM", "setting": "[17]", "value": 90, "unit": "%"},
      {"measurement": "remaining binding at 1 µM", "setting": "[18]", "value": 54, "unit": "%"},
      {"measurement": "remaining binding at 1 µM", "setting": "[19]", "value": 90, "unit": "%"},
      {"measurement": "remaining binding at 1 µM", "setting": "[20]", "value": 97, "unit": "%"},
      {"measurement": "remaining binding at 1 µM", "setting": "[21]", "value": 92, "unit": "%"},
      {"measurement": "remaining binding at 1 µM", "setting": "[22]", "value": 60, "unit": "%"},
      {"measurement": "remaining binding at 1 µM", "setting": "[23]", "value": 90, "unit": "%"},
      {"measurement": "remaining binding at 1 µM", "setting": "[24]", "value": 72, "unit": "%"},
      {"measurement": "remaining binding at 1 µM", "setting": "[25]", "value": 95, "unit": "%"}
    ]}
  ]
}
